From US8420810B2, “Bicyclic heterocyclic compound” (Ono Pharmaceutical, Co., Ltd., priority 2007, dated 2013)

Tests used:
[1] = target: T1, human CRF receptor I (Homo sapiens, UniProt P34998); experiment: Binding assay (125I-CRF, membrane fraction); conditions: 125I-CRF 0.25 nM, membrane fraction of CHO-K1 cells expressing human CRF receptor I, room temperature 2 hours
T1 construct: expressed in transfected cells; host or cells: CHO-K1
T1 sequence (P34998 24-415): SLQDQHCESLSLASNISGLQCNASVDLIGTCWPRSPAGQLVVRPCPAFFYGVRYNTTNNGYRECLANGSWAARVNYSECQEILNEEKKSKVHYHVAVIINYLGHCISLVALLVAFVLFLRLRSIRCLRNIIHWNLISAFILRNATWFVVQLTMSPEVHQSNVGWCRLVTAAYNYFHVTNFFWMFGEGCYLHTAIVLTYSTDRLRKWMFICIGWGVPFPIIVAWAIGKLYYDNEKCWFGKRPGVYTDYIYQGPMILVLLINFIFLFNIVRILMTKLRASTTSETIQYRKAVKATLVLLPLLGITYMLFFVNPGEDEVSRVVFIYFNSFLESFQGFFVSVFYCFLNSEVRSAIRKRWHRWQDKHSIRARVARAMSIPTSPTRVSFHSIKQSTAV
Procedure: The forced-expression cell strain of the human CRF receptor I (parent strain is CHO-K1 cell) was cultured until the cell was confluent and collected with a scraper. The collected cells were washed twice with PBS, and were suspended with an ice-colded binding assay buffer (Tris-HCl (50 mM, pH 7.0), EDTA (2 mM, pH 8.0), and MgCl2 (10 mM)). After fractured with a dounce-type homogenizer, the suspended cells were centrifuged at 10,000 g, and a membrane fraction was collected. The collected membrane fraction was resuspended with a little amount of the binding assay buffer, thereafter diluted with the binding assay buffer so as to have a concentration of 1 mg/mL. The obtained membrane fraction was used for a binding assay.
^125I-CRF was diluted with the binding assay buffer so as to have a concentration of 0.5 nM, whereby 50 μL of the diluted ^125I-CRF was added to a siliconized 1.5 mL tube. Next, evaluation compounds diluted at appropriate times, DMSO (for general binding), or 100 μM of CRF (for non-specific binding), was added to a […]. Finally, 50 μL of the membrane fraction was added thereto and the reaction was started (final concentration of ^125I-CRF was 0.25 nM). The tube was incubated at room temperature for 2 hours. After the reaction, the tube was centrifuged at 20,000 g in order to collect the membrane fraction. The supernatant was discarded, and the pellet was washed with an ice-colded PBS/0.01% TritonX-100. A membrane binding count was measured using a y counter. The specific binding count was obtained by subtracting the non-specific count from the measured count.

[2] = target: T1, human CRF receptor I; experiment: Receptor antagonistic activity (cyclic AMP assay); type: cell-based; conditions: accumulated cyclic AMP, human/rat CRF stimulation, cells expressing human CRF receptor I, 37° C. 15 minutes
Procedure: The forced expression cell strain of the human CRF receptor I was cultured at 37° C. under 5% carbon dioxide and 95% air by using a Ham's F-12 medium (F-12 nutrient mixture) containing 10% bovine fetal serum and 1% antibiotic substance-antifungal agent. On the previous day before the cyclic AMP was measured, the cells were inoculated into a 96-well plate in an amount of 1×10^4 cell/well. On the measurement day, the cells were washed twice with a Ham's F-12 medium, whereby a solution of Ham's F-12 medium/1 mM 3-isobutyl-1-methylxanthine (assay medium) (178 μL) was added to each well. After the incubation at 37° C. for 15 minutes, the solutions (2 μL) of evaluation compound in various concentrations were added thereto, or DMSO (2 μL) was added to a CRF group and a blank group. An assay medium (20 μL) containing 10 nM human/rat CRF was added to wells of an evaluation compound group and the CRF group. An assay medium (20 μL) containing 0.00001% acetic acid was added to the blank group. Each group was further incubated at 37° C. for 15 minutes. The supernatant was removed and ice-colded to stop the reaction. Note that the reactions of 2 wells were the same in all reactions. The measurement for accumulated cyclic AMP amount in cells was carried out by using a cyclic AMP Biotrak enzyme immunoassay system (manufactured by GE Healthcare). The accumulated cyclic AMP amounts were calculated by subtracting mean values of corresponding 2 wells in the blank group from that of 2 wells. The IC50 values were calculated with non-linear regression analysis by defining logarithm concentration of the evaluation compound as independent variable and an accumulated cyclic AMP amount as dependent variable.

[3] = test system: SD rats; experiment: Elevated plus maze test with swim-stressed rat; type: in vivo; conditions: orally 1 hour before the test
Procedure: 2 open arms with the same lengths (50×10 cm) and 2 close arms (a 30 cm wall was provided) with the same lengths (50×10 cm) were arranged in orthogonal manner at a height of 50 cm from the floor to provide an elevated crossroad maze system. In 70 cm above the both open arms, white light was provided, whereby illuminance was maintained at constant.
SD rats of 7 weeks of age (CHARLES RIVER LABORATORIES JAPAN) were forcedly made to swim for 120 seconds in a pool (40×30×38 cm) at 22° C. of water temperature and 25 cm of water depth. After 9 minutes of soaking stress loading, the rat was put on the center of the system. The activity for 5 minutes of the rat was analyzed with an automatic activity-tracking analysis system (EthoVision Version 3.0, Noldus Information Technology) to calculate the dwell time (second) on the open arm.
Note that no soaking stress was loaded on the control group. In addition, 20% Wellsolve (registered trademark) (5 mL/kg) was orally administered to the vehicle group and evaluation compounds in various concentrations were orally administrated to the evaluation compound administration group 1 hour before the test.

[4] = test system: rats; experiment: Rat learned helplessness test; type: in vivo; conditions: oral, once a day for 6 days and 1 hour before the shock training
Procedure: The learned helplessness test was carried out using a two-way shuttle box which is partitioned into two by a gate which can be opened and closed so that travel to right and left becomes possible. On the 1st day of the learned helplessness test, rats were put into the device under un-escapable condition by closing the gate, and a total of 90 times of an electric shock (0.5 mA) was applied to them through a floor grid for 10 seconds at 2 seconds' intervals (shock training). Rats of the control group were left as they are for the same period of time (for 18 minutes) without applying the electric shock. After 24 hours of the shock training, rats were put into the device under escapable condition by opening the gate to carry out an escape test. After 5 minutes of acclimatization, a light stimulus and a sound stimulus (conditioning stimuli) were applied simultaneously for 5 seconds, and subsequent electric shock (un-conditioning stimulus) was applied for 10 seconds. This was regarded as one trial. A case of continuously receiving the electric shock without escape was regarded as escape failure. A total of 40 trials were carried out by setting the interval between respective trials to 5 seconds, and frequency of the escape failure was recorded.
In this connection, the vehicle (20% solvent) and evaluation compound were repeatedly administered once a day for 6 days and further orally administered 1 hour before the shock training.

[5] = Light stability test; type: physicochemical; conditions: 2500 Lux (D65 lamp), 25° C., HPLC
Procedure: After weighing 5 mg of an evaluation compound, it was put into a test tube made of glass which was then sealed with a stop cock. Said test tube was stored at 25° C. for 11 days or 20 days under irradiation of 2500 Lux (a D65 lamp was used as the light source). The evaluation compound after 11 days or 20 days of irradiation was determined by an HPLC apparatus. Survival rate (%) of the evaluation compound was calculated by the following formula. Survival rate of evaluation compound (%)=amount of evaluation compound after 11 days or 20 days of irradiation (mg)/weighed value of evaluation compound (mg)×100 <HPLC Conditions> • Apparatus: A 1200 series (manufactured by Agilent Technologies, Inc.), • Column: YMC-Pack C4, A-802, 150×4.6 mm I.D., S-5 μm, 120 A (manufactured by YMC), • Mobile phase: A: water, B: acetonitrile, A/B: 35/65, • Column temperature: room temperature, • Flow rate: 1.0 mL/min.

IC50 [1] [nM]	IC50 [2] [nM]	residual ratio after 20 days [5] [%]	Compound	mean dwell time on the open arm compared to that of the vehicle group [3]	mean dwell time on the open arm compared to that of the vehicle group ([3]; 10 mg/kg)	increase of the frequency of escape failure for the vehicle group ([4]; 10 mg/kg)	increase of the frequency of escape failure for the vehicle group ([4]; 3 mg/kg)
3.6	1.7	–	CCc1cc(OC)ccc1-c1nn2c(C)cc(C(CC)CC)c2c(=O)n1C [8(25), 2-(2-ethyl-4-methoxyphenyl)-5-(1-ethylpropyl)-3,7-dimethylpyrrolo[2,1-f][1,2,4]triazin-4(3H)-one]	favorably elongated	–	–	–
14.7	9.4	–	CCC(CC)c1cc(C)n2nc(-c3c(C)nc(N(C)C)nc3C)n(C)c(=O)c12 [8(27), 2-[2-(dimethylamino)-4,6-dimethyl-5-pyrimidinyl]-5-(1-ethylpropyl)-3,7-dimethylpyrrolo[2,1-f][1,2,4]triazin-4(3H)-one]	–	–	–	–
23.5	34.8	–	CCC(CC)c1cc(C)n2nc(-c3ccc(OC)cc3C)n(CC(N)=O)c(=O)c12 [8(38), 2-[5-(1-ethylpropyl)-2-(4-methoxy-2-methylphenyl)-7-methyl-4-oxopyrrolo[2,1-f][1,2,4]triazin-3(4H)-yl]acetamide]	–	–	–	–
7.8	4.2	–	CCC(CC)c1cc(C)n2nc(-c3ccc(OC)cc3C)n(CCO)c(=O)c12 [8(44), 5-(1-ethylpropyl)-3-(2-hydroxyethyl)-2-(4-methoxy-2-methylphenyl)-7-methylpyrrolo[2,1-f][1,2,4]triazin-4(3H)-one]	–	–	–	–
7.2	1.2	–	CCC(CC)c1cc(C)n2nc(-c3sc(N(C)C)nc3Cl)n(C)c(=O)c12 [8(48), 2-[4-chloro-2-(dimethylamino)-1,3-thiazol-5-yl]-5-(1-ethylpropyl)-3,7-dimethylpyrrolo[2,1-f][1,2,4]triazin-4(3H)-one]	–	–	–	–
20.7	17.1	–	CCCC(C)c1cc(C)n2nc(-c3cnc(OC(F)F)cc3C)n(C)c(=O)c12 (stereo not drawn) [28(10), 2-[6-(difluoromethoxy)-4-methyl-3-pyridinyl]-3,7-dimethyl-5-(1-methylbutyl)pyrrolo[2,1-f][1,2,4]triazin-4(3H)-one]	favorably elongated	–	–	–
6.1	1.8	99	CCC(CC)c1cc(C)n2nc(-c3ccc(OC(F)(F)F)cc3Cl)n(C)c(=O)c12 [Example 8, 2-[2-chloro-4-(trifluoromethoxy)phenyl]-5-(1-ethylpropyl)-3,7-dimethylpyrrolo[2,1-f][1,2,4]triazin-4(3H)-one]	–	favorably elongated	significantly inhibited	–
5.3	3.2	–	CCC(CC)c1cc(C)n2nc(-c3cnc(OC(F)F)cc3C)n(C)c(=O)c12 [Example 13, 2-[6-(difluoromethoxy)-4-methyl-3pyridinyl]-5-(1-ethylpropyl)-3,7-dimethylpyrrolo[2,1-f][1,2,4]triazin-4(3H)-one]	–	–	–	significantly inhibited
2.1	1.9	–	CCCC(C)c1cc(C)n2nc(-c3ccc(SC)cc3Cl)n(C)c(=O)c12 (stereo not drawn) [Example 22, 2-[2-chloro-4-(methylthio)phenyl]-3,7-dimethyl-5-(1-methylbutyl)pyrrolo[2,1-f][1,2,4]triazin-4(3H)-one]	–	–	–	significantly inhibited
11	9.6	–	CCn1c(-c2ccc(SC)cc2C)nn2c(C)cc(C(C)C)c2c1=O [Example 23, 3-ethyl-5-isopropyl-7-methyl-2-[2-methyl-4-(methylthio)phenyl]pyrrolo[2,1-f][1,2,4]triazin-4(3H)-one]	–	favorably elongated	–	–
5.2	5.8	–	CCC(CC)c1cc(C)n2nc(-c3ncc(OC)cc3Cl)n(C)c(=O)c12 [Example 24(21), 2-(3-chloro-5-methoxy-2-pyridinyl)-5-(1-ethylpropyl)-3,7-dimethylpyrrolo[2,1-f][1,2,4]triazin-4(3H)-one]	–	–	significantly inhibited	–
4.9	3.5	–	CCN(CC)c1cc(C)n2nc(-c3ccc(OC)cc3Cl)n(C)c(=O)c12 [Example 65, 2-(2-chloro-4-methoxyphenyl)-5-(diethylamino)-3,7-dimethylpyrrolo[2,1-f][1,2,4]triazin-4(3H)-one]	–	–	–	–
